According to patent US10781236B2, “Bacteriocin composition and method” (priority 2015, dated 2020):

What was measured:
[1] = system: L. monocytogenes; experiment: Antimicrobial activity against problematic bacteria; type: cell-based, Listeria monocytogenes
Procedure: (§1) To screen for bacteriocin producers with broad inhibition spectra (BIS), Lactococcus lactis, Lactobacillus sakei, Lactobacillus plantarum, Listeria innocua, and Staphylococcus aureus from the food and dairy environment were used as indicators in the first round of screening. The antimicrobial screening was performed using the agar diffusion bioassay as previously described (Holo et al., 1991, J. Bacteriol., 173, p 3879-3887). Briefly, indicator cells from overnight cultures were diluted 100-fold in 5 mL of BHI soft agar and plated out as a lawn on BHI agar plates. Potential bacteriocin producers at volumes of 3 μL were spotted on the indicator lawn and then incubated at appropriate temperatures for 24 h for cell growth and cell inhibition. Inhibition was detected as clear zones around the spotted cells.
(§2) As the antimicrobial activity of garvicin KS is relatively broad, we explored further its potential to kill a larger panel of important pathogens. The list contained 147 problematic or potentially problematic bacteria of species belonging to Listeria, Staphylococcus, Streptococcus and Enterococcus, isolated from food and clinical sources. In this assay, we compared the antimicrobial activity of garvicin KS with that of garvicin ML and nisin, the last one being known as a broad inhibition-spectrum bacteriocin (AIKhatib et al., 2014, PLOS One 9:e102246 doi:10.1371/joumal.pone.0102246). […]

[2] = system: L. lactis LMGT 2130; experiment: Relative MIC, inhibitory spectrum; type: cell-based, Lactococcus lactis; settings: relative to L. lactis IL 1403 = 1
[3] = system: L. lactis LMGT 3419; experiment: Relative MIC, inhibitory spectrum; type: cell-based, Lactococcus lactis; settings: relative to L. lactis IL 1403 = 1
[4] = system: L. seelingeri; experiment: Antimicrobial activity against problematic bacteria; type: cell-based, Listeria seelingeri; settings: food sources
Procedure: as §1, §2

[5] = system: C. tyrobutyricum LMGT 2511; experiment: Relative MIC, inhibitory spectrum; type: cell-based, Clostridium tyrobutyricum; settings: relative to L. lactis IL 1403 = 1
[6] = system: L. lactis LMGT 2081; experiment: Relative MIC, inhibitory spectrum; type: cell-based, Lactococcus lactis; settings: relative to L. lactis IL 1403 = 1
[7] = system: E. faecium LMGT 2783; experiment: Relative MIC, inhibitory spectrum; type: cell-based, Enterococcus faecium; settings: relative to L. lactis IL 1403 = 1
[8] = system: S. aureus LMGT 3265; experiment: Relative MIC, inhibitory spectrum; type: cell-based, Staphylococcus aureus; settings: relative to L. lactis IL 1403 = 1
[9] = system: L. curvatus LMGT 2715; experiment: Relative MIC, inhibitory spectrum; type: cell-based, Lactobacillus curvatus; settings: relative to L. lactis IL 1403 = 1
[10] = system: L. innocua; experiment: Antimicrobial activity against problematic bacteria; type: cell-based, Listeria innocua; settings: food sources
Procedure: as §1, §2

[11] = system: L. grayi; experiment: as above; type: cell-based, Listeria grayi; settings: food sources
Procedure: as §1, §2

[12] = system: Lactobacillus curvatus LMGT 2353; experiment: Relative MIC, inhibitory spectrum; type: cell-based; settings: relative to L. lactis IL 1403 = 1
[13] = system: Listeria innocua LMGT 2710; experiment: Relative MIC, inhibitory spectrum; type: cell-based; settings: relative to L. lactis IL 1403 = 1
[14] = system: P. pentosaceus LMGT 2001; experiment: Relative MIC, inhibitory spectrum; type: cell-based, Pediococcus pentosaceus; settings: relative to L. lactis IL 1403 = 1
[15] = system: E. faecium; experiment: Antimicrobial activity against problematic bacteria; type: cell-based, Enterococcus faecium; settings: food sources
Procedure: as §1, §2

[16] = system: L. Sakei LMGT 2799; experiment: Relative MIC, inhibitory spectrum; type: cell-based, Lactobacillus sakei; settings: relative to L. lactis IL 1403 = 1
[17] = system: E. faecium LMGT 2772; experiment: Relative MIC, inhibitory spectrum; type: cell-based, Enterococcus faecium; settings: relative to L. lactis IL 1403 = 1
[18] = system: C. tyrobutyricum LMGT 2524; experiment: Relative MIC, inhibitory spectrum; type: cell-based, Clostridium tyrobutyricum; settings: relative to L. lactis IL 1403 = 1
[19] = system: S. salivarius; experiment: Antimicrobial activity against problematic bacteria; type: cell-based, Streptococcus salivarius; settings: clinical sources
Procedure: as §1, §2

[20] = system: S. agalactia; experiment: as above; type: cell-based, Streptococcus agalactia; settings: clinical sources
Procedure: as §1, §2

[21] = system: Leuconostoc gelidium LMGT 2386; experiment: Relative MIC, inhibitory spectrum; type: cell-based; settings: relative to L. lactis IL 1403 = 1
[22] = system: Strep. Thermophylus; experiment: Antimicrobial activity against problematic bacteria; type: cell-based, Streptococcus thermophylus; settings: food sources
Procedure: as §1, §2

[23] = system: S. pneumonia; experiment: as above; type: cell-based, Streptococcus pneumonia
Procedure: as §1, §2

[24] = system: L. Sakei LMGT 2380; experiment: Relative MIC, inhibitory spectrum; type: cell-based, Lactobacillus sakei; settings: relative to L. lactis IL 1403 = 1
[25] = system: 53 strains of different genera in the Firmicutes family; experiment: Inhibitory spectrum, whole panel of Table 3; type: cell-based; settings: 53 strains of Table 3
Description: A more extended comparison between the bacteriocin activity of L. garvieae KS 1546 (termed garvicin KS) and L. garvieae DCC 43 (garvicin ML producer) can also be seen in Table 3.

[26] = system: L. plantarum LMGT 2352; experiment: Relative MIC, inhibitory spectrum; type: cell-based, Lactobacillus plantarum; settings: relative to L. lactis IL 1403 = 1
[27] = system: L. monocytogenes LMGT 2604; experiment: Relative MIC, inhibitory spectrum; type: cell-based, Listeria monocytogenes; settings: relative to L. lactis IL 1403 = 1
[28] = system: Bacillus cereus LMGT 2805; experiment: Relative MIC, inhibitory spectrum; type: cell-based; settings: relative to L. lactis IL 1403 = 1
[29] = system: E. faecalis LMGT 2333; experiment: Relative MIC, inhibitory spectrum; type: cell-based, Enterococcus faecalis; settings: relative to L. lactis IL 1403 = 1
[30] = system: L. monocytogenes LMGT 2650; experiment: Relative MIC, inhibitory spectrum; type: cell-based, Listeria monocytogenes; settings: relative to L. lactis IL 1403 = 1
[31] = system: E. faecalis; experiment: Antimicrobial activity against problematic bacteria; type: cell-based, Enterococcus faecalis
Procedure: as §1, §2

[32] = system: Staphylococcus aureus LMGT 3022; experiment: Relative MIC, inhibitory spectrum; type: cell-based; settings: relative to L. lactis IL 1403 = 1
[33] = system: P. pentosaceus LMGT 2366; experiment: Relative MIC, inhibitory spectrum; type: cell-based, Pediococcus pentosaceus; settings: relative to L. lactis IL 1403 = 1
[34] = system: Pediococcus acidilactici LMGT 2002; experiment: Relative MIC, inhibitory spectrum; type: cell-based; settings: relative to L. lactis IL 1403 = 1
[35] = system: L. plantarum LMGT 2379; experiment: Relative MIC, inhibitory spectrum; type: cell-based, Lactobacillus plantarum; settings: relative to L. lactis IL 1403 = 1

garvicin ML
number of sensitive strains / number of strains tested ([1]; clinical sources): 0/4
number of sensitive strains / number of strains tested ([1]; food sources): 0/20
Relative MIC value [2]: 8
Relative MIC value [3]: ≤0.25
number of sensitive strains / number of strains tested [4]: 0/1
Relative MIC value [5]: 32
Relative MIC value [6]: ≤0.25
Relative MIC value [7]: 64
Relative MIC value [8]: ≥512
Relative MIC value [9]: 32
number of sensitive strains / number of strains tested [10]: 1/6
number of sensitive strains / number of strains tested [11]: 0/2
Relative MIC value [12]: 16
Relative MIC value [13]: 32
Relative MIC value [14]: 16-32
number of sensitive strains / number of strains tested [15]: 7/7
Relative MIC value [16]: 8-16
Relative MIC value [17]: 32
Relative MIC value [18]: 32-64
number of sensitive strains / number of strains tested [19]: 1/1
number of sensitive strains / number of strains tested [20]: 1/1
Relative MIC value [21]: 32-64
number of sensitive strains / number of strains tested [22]: 8/8
number of sensitive strains / number of strains tested ([23]; clinical sources): 1/1
number of sensitive strains / number of strains tested ([23]; food sources): 1/1
Relative MIC value [24]: 32
number of sensitive strains (n) among 53 strains [25]: 39
sensitive portion of 53 strains [25]: about 74%
Relative MIC value [26]: 16
Relative MIC value [27]: 32
Relative MIC value [28]: 64
Relative MIC value [29]: 64-128
Relative MIC value [30]: 64
number of sensitive strains / number of strains tested ([31]; clinical sources): 0/2
number of sensitive strains / number of strains tested ([31]; food sources): 18/40
Relative MIC value [32]: 512
Relative MIC value [33]: 64
Relative MIC value [34]: 32
Relative MIC value [35]: 32
